Active and inactive are the calls of the source. The rule behind the calls is not given here. Where a SMILES comes first, the peptide text is derived from it. The star is where a group is joined. MeOSuc = COC(=O)CCC(=O)*; Cbz = O=C(OCc1ccccc1)*; CH2Cl = ClC*

The subject of series [1] is PC-12. In words: Protection against KCN-induced necrosis in […] cells assessed as reduction in KCN-induced cell death at 20 to 100 uM incubated for 5 hrs by LDH release assay. Type of series: functional, cell-based. To be noted: dose 20-100 µM.
Series [2] deals with Mus musculus. The experiment in a line: Protection against necrosis in Balb/c mouse model of model of myocardial infarction/reperfusion assessed as reduction in infarct size at 30 mg/kg, iv followed by ischemia and reperfusion and subsequent second dosing at 30 mg/kg, iv and measured after 6 hrs post reperfusion by TTC staining based analysis. Type of series: functional. More on the design: scale not given: the % may be the effect or the level left. The settings on record: dose 60 mg/kg.

Series [3] has as its system PC-12. In words: Protection against KCN-induced necrosis in […] cells assessed as reduction in KCN-induced cell death at 10 to 300 uM incubated for 5 hrs by LDH release assay. To be noted: dose 10-300 µM. It counts as functional, cell-based.
In series [4] the test system is Mus musculus. The experiment in a line: Protection against necrosis in C57BL/6J mouse model of traumatic brain injury assessed as decrease in neuronal damage in brain at 100 ug, icv measured 1 hr post injury by neurological severity score based analysis. It counts as functional, organism-based. To be noted: dose 100.0 µg.
Series [5] can be described thus: (§1) Inhibition KCN-induced elastase like activity in human U-937 cells at 0.01 to 100 uM using substrate MAAPV. Type of series: cell-based.
Series [6] deals with U-937. Described as §1. It counts as cell-based. The settings on record: dose 0.01-100 µM.
The nature of series [7]: Toxicity in sham control C57BL/6J mouse at 100 ug, icv. To be noted: in vivo, icv_or_intrathecal, dose 100 µg.
Series [8] relates to Mus musculus. In words: Protection against necrosis in C57BL/6J mouse model of traumatic brain injury assessed as decrease in necrotic space in brains at 100 ug, icv measured 24 hrs post injury by TTC staining based analysis. Type of series: functional. The arrangement: scale not given: the % may be the effect or the level left. The settings on record: dose 100 µg.
The test system of series [9] is U-937. The experiment in a line: Inhibition KCN-induced elastase like activity in human U-937 cells using substrate MAAPV. It counts as cell-based.
Series [10] has as its system U-937. In words: Inhibition oligomycin-induced elastase like activity in human U-937 cells at 100 uM by substrate gel electrophoresis. It counts as cell-based.
Series [11] deals with U-937. In words: Inhibition anti-Fas antibody-induced elastase like activity in human U-937 cells at 100 uM by substrate gel electrophoresis. It counts as cell-based.
Series [12] concerns Mus musculus. The experiment in a line: Protection against necrosis in C57BL/6J mouse model of paracetamol-induced […] assessed as reduction in liver GPT levels at 30 mg/kg, ip dosed 4 hrs after paracetamol injection and measured 24 hrs post paracetamol injection by. To be noted: time 28 hrs. More on the design: scale not given: the % may be the effect or the level left. It counts as functional.

The test system of series [13] is Mus musculus. The experiment in a line: Protection against necrosis in C57BL/6J mouse model of paracetamol-induced […] assessed as reduction in liver AST levels at 10 mg/kg, ip dosed 4 hrs after paracetamol injection and measured 24 hrs post paracetamol injection by. Type of series: functional, organism-based. To be noted: time 28.0 hrs.
For series [14], the system named is Mus musculus. In words: Protection against necrosis in C57BL/6J mouse model of paracetamol-induced […] assessed as reduction in liver GOT levels at 10 mg/kg, ip dosed 4 hrs after paracetamol injection and measured 24 hrs post paracetamol injection by. It counts as functional, organism-based. The settings on record: time 28.0 hrs.
The subject of series [15] is Mus musculus. In words: Protection against necrosis in C57BL/6J mouse model of paracetamol-induced […] assessed as reduction in liver AST levels at 30 mg/kg, ip dosed 4 hrs after paracetamol injection and measured 24 hrs post paracetamol injection by. Type of series: functional. The arrangement: scale not given: the % may be the effect or the level left. To be noted: time 28 hrs.

Series [16] relates to Mus musculus. In words: Protection against necrosis in C57BL/6J mouse model of paracetamol-induced […] assessed as reduction in liver ALT levels at 10 mg/kg, ip dosed 4 hrs after paracetamol injection and measured 24 hrs post paracetamol injection by. Type of series: functional, organism-based. The settings on record: time 28.0 hrs.
For series [17], the system named is Mus musculus. The experiment in a line: Protection against necrosis in C57BL/6J mouse model of paracetamol-induced […] assessed as reduction in liver GPT levels at 10 mg/kg, ip dosed 4 hrs after paracetamol injection and measured 24 hrs post paracetamol injection by. Type of series: functional, organism-based. The settings on record: time 28.0 hrs.

Series [18] concerns Mus musculus. The experiment in a line: Protection against necrosis in C57BL/6J mouse model of paracetamol-induced […] assessed as reduction in liver ALT levels at 30 mg/kg, ip dosed 4 hrs after paracetamol injection and measured 24 hrs post paracetamol injection by. It counts as functional. To be noted: time 28 hrs. The arrangement: scale not given: the % may be the effect or the level left.

For series [19], the system named is Mus musculus. The experiment in a line: Protection against necrosis in C57BL/6J mouse model of paracetamol-induced […] assessed as reduction in liver GOT levels at 30 mg/kg, ip dosed 4 hrs after paracetamol injection and measured 24 hrs post paracetamol injection by. It counts as functional. The arrangement: scale not given: the % may be the effect or the level left. The settings on record: time 28 hrs.

As to `CC(C)(C)C(=O)Oc1ccc(S(=O)(=O)Nc2ccccc2C(=O)NCC(=O)O)cc1`, the Activity result with PC-12 [1] was “Dose-dependent effect”.

In the case of `CCC(=O)N1CCN=C1N1CCN(C)CC1`, the Activity in the series with Mus musculus [2] came to 30%.

With `COC(=O)CCC(=O)N[C@@H](C)C(=O)N[C@@H](C)C(=O)N1CCC[C@H]1C(=O)N[C@H](C(=O)CCl)C(C)C` (MeOSuc-AAPV-CH2Cl), the Activity entry in the series on PC-12 [3] is “Dose-dependent effect”; in series [7], “Non-Toxic”; with Mus musculus [8] it was 50%. Further, the result in the series with Mus musculus [4] was Active. This compound also registered an IC50 in series [5] of 2740 nM. The inhibition result in the series with U-937 [6] was “Dose-dependent effect”.

Regarding `CCOC(=O)[C@H]1O[C@@H]1C(=O)N[C@@H](CC(C)C)C(=O)NCCC(C)C`, the inhibition result in the series on U-937 [9] was “inactive”.

On to `CC(C)C[C@H](NC(=O)N[C@H](C(=O)N[C@@H](CCC(N)=O)C(=O)N[C@@H](C)C=O)C1CCNC(=N)N1)C(=O)O` (some centres undefined), for which the inhibition result in the series on U-937 [10] and in the series on U-937 [11] was “Active” throughout. Further, in the series on PC-12 [3], the result was inactive.

For the compound `Cc1ccc(S(=O)(=O)N[C@@H](Cc2ccccc2)C(=O)CCl)cc1`, the inhibition entry with U-937 [10] and with U-937 [11] was “inactive” each time.

Take `O=C(c1csc(N2CCCCC2)n1)N1CCCC1`: the Activity with Mus musculus [12], in the series on Mus musculus [15], in the series on Mus musculus [18] and with Mus musculus [19] was 100% in each case. The outcome with Mus musculus [13], in the series on Mus musculus [14], with Mus musculus [16] and in the series with Mus musculus [17] was Active.

For the compound `CN1C(=O)Cc2ccc(-c3ccc(C[C@@H](C#N)NC(=O)[C@H]4N[C@@H]5CC[C@H]4C5)c(F)c3)cc21`, the Activity entry in the series with PC-12 [3] is “Dose-dependent effect”.

Turning to `O=C[C@H](Cc1ccc(O)cc1)NC(=O)[C@H](Cc1ccccc1)NC(=O)OCc1ccccc1` (Cbz-Phe-Tyr-aldehyde), the inhibition entry in the series with U-937 [9] was “inactive”.
